Legend:
[1] = target: T1, recombinant human cGAS (aa147-522) (Homo sapiens, UniProt Q8N884); experiment: In vitro inhibition assay of cGAS activity (ATP consumption, KinaseGlo Max); assay type: biochemical; conditions: Table 3, read-out: cGAS Inhibition Results IC50
T1 construct: recombinant human cGAS (aa147-522); His6-SUMO (cleaved yes); made in house; host or cells: E. coli BL21/pLys
How it was run: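 IC50 came from plotting % ATP consumption against log compound concentration, with leftover ATP detected by KinaseGlo Max chemiluminescence. Reactions ran 20 min at 37 °C with 1.5 μg/mL human cGAS (aa147-522), 6.6 μM ATP, 0.1 mM GTP and 0.01 mg/mL DNA at pH 7.5.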

[2] = test system: cGAS activity in Reporter THP1 cell line; experiment: Cellular assay to measure cGAS activity: ISRE-Gaussia luciferase reporter THP1 cells transfected with ISD; assay type: cell-based; conditions: Homo sapiens, THP-1, untitled table after Table 4 (continuation)
How it was run: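 THP1 ISRE-Gaussia luciferase reporter cells (0.3×10^6/well) pre-incubated 5 min with compound serial dilutions, then lipofectamine-transfected with 2 μg/mL ISD (45 bp DNA) or mock. Secreted luciferase read 16 h later with 1 μM coelenterazine at pH 6.5; IC50 from fold increase over mock. Specificity counter-screen used 2 μg/mL poly(I:C) or Sendai virus 50 Unit/mL.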

T1 sequence (Q8N884 147-522): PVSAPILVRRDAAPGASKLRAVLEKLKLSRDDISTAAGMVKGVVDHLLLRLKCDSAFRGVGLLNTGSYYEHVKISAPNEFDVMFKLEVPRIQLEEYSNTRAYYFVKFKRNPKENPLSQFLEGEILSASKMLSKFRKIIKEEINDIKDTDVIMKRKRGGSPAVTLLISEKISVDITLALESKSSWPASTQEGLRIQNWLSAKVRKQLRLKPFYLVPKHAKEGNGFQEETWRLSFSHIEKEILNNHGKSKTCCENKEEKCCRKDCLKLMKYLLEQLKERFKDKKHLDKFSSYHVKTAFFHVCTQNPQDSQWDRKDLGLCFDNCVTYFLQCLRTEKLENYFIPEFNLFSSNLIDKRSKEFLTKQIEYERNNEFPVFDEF

| Compound | IC50 [1] [nM] | IC50 [2] [nM] |
| --- | --- | --- |
| O=C(O)CCCCNc1cc(-n2ccnc2)c2ccc(Cl)c(Cl)c2n1 [I-835] | < 2000 | 2000 to 10000 |
| O=C(O)CCOCCN(c1cc(-n2ccnc2)c2ccc(Cl)c(Cl)c2n1)C1CCCCC1 [I-836] | < 2000 | < 2000 |
| O=C(O)CCOCCN(Cc1ccccc1)c1cc(-n2ccnc2)c2ccc(Cl)c(Cl)c2n1 [I-837] | < 2000 | < 2000 |
| O=C(O)CCOCCN(CCOCCC(=O)O)c1cc(-n2ccnc2)c2ccc(Cl)c(Cl)c2n1 [I-839] | < 2000 | > 10000 |
| O=C(O)CCOCc1cccc(-c2cc(-n3ccnc3)c3ccc(Cl)c(Cl)c3n2)c1 [I-840, 3-((3-(7,8-dichloro-4-(1H-imidazol-1-yl)quinolin-2-yl)benzyl)oxy)propanoic acid] | < 2000 | < 2000 |
| O=C(O)CCOCc1ccccc1-c1cc(-n2ccnc2)c2ccc(Cl)c(Cl)c2n1 [I-841] | < 2000 | > 10000 |
| CN(CCOc1cccc(CC(=O)O)c1)c1cc(-n2ccnc2)c2ccc(Cl)c(Cl)c2n1 [I-843] | < 2000 | 2000 to 10000 |
| O=C(O)Cc1cccc(CNc2cc(-n3ccnc3)c3ccc(Cl)c(Cl)c3n2)c1 [I-844] | < 2000 | < 2000 |
| O=C(O)CCOC[C@@H]1CCCN1c1cc(-c2cn[nH]c2)c2cc(Cl)cc(Cl)c2n1 [I-853] | < 2000 | < 2000 |
| O=C(O)CCCCCNc1cc(-c2cn[nH]c2)c2cc(Cl)cc(Cl)c2n1 [I-854] | < 2000 | > 10000 |
| O=C(O)CCOC[C@@H]1CCCN1c1cc(-n2ccnc2)c2ccc(Cl)c(Br)c2n1 [I-862] | < 2000 | < 2000 |
| O=C(O)CCOC1CCN(c2cc(-n3ccnc3)c3ccc(Cl)c(Cl)c3n2)CC1 [I-864] | < 2000 | > 10000 |
| O=C(O)CCOCC1CCCCN(c2cc(-n3ccnc3)c3ccc(Cl)c(Cl)c3n2)C1 (stereo not shown) [I-866] | < 2000 | 2000 to 10000 |
| COc1cc(Cl)c2nc(N3CCC[C@H]3COCCC(=O)O)cc(-n3ccnc3)c2c1 [I-875] | < 2000 | < 2000 |
| O=C(O)CCOC[C@@H]1CCCN1c1cc(-n2ccnc2)c2cc(Cl)c(Cl)c(Cl)c2n1 [I-876] | < 2000 | < 2000 |
| Cc1ccc(-c2cc(-n3ccnc3)c3ccc(Cl)c(Cl)c3n2)cc1COCCC(=O)O [I-877] | < 2000 | < 2000 |
| O=C(O)CCOCc1ccc(Cl)c(-c2cc(-n3ccnc3)c3ccc(Cl)c(Cl)c3n2)c1 [I-878] | < 2000 | < 2000 |
| O=C(O)CCOCc1cc(Cl)cc(-c2cc(-n3ccnc3)c3ccc(Cl)c(Cl)c3n2)c1 [I-879] | < 2000 | < 2000 |
| O=C(O)c1noc(CCNc2cc(-n3ccnc3)c3ccc(Cl)c(Cl)c3n2)n1 [I-882] | < 2000 | > 10000 |
| COc1ccc(-c2cc(-n3ccnc3)c3ccc(Cl)c(Cl)c3n2)cc1COCCC(=O)O [I-884] | < 2000 | < 2000 |
| O=C(O)c1ccccc1OCCNc1cc(-n2ccnc2)c2ccc(Cl)c(Cl)c2n1 [I-886] | < 2000 | < 2000 |
| O=C(O)Cc1cc(F)cc(CNc2cc(-n3ccnc3)c3ccc(Cl)c(Cl)c3n2)c1 [I-891, 2-(3-(((7,8-dichloro-4-(1H-imidazol-1-yl)quinolin-2-yl)amino)methyl)-5-fluorophenyl)acetic acid] | < 2000 | < 2000 |

Results, then the compound that gave them:

| IC50 [1] [nM] | IC50 [2] [nM] | Compound |
| --- | --- | --- |
| < 2000 | < 2000 | O=C(O)CCOCCN(c1cc(-n2ccnc2)c2ccc(Cl)c(Cl)c2n1)C1CC1 [I-834] |
| < 2000 | > 10000 | O=C(O)CCOCCN(CCO)c1cc(-n2ccnc2)c2ccc(Cl)c(Cl)c2n1 [I-838] |
| < 2000 | 2000 to 10000 | CN(CCOc1ccccc1C(=O)O)c1cc(-n2ccnc2)c2ccc(Cl)c(Cl)c2n1 [I-842] |
| < 2000 | < 2000 | CN(Cc1cccc(CC(=O)O)c1)c1cc(-n2ccnc2)c2ccc(Cl)c(Cl)c2n1 [I-845] |
| < 2000 | < 2000 | CN(CCCOc1ccccc1C(=O)O)c1cc(-n2ccnc2)c2ccc(Cl)c(Cl)c2n1 [I-846] |
| 2000 to 30000 | > 10000 | O=C(O)CCOC[C@@H]1CCCN1c1cc(-c2cn[nH]c2)c2c(Cl)cc(Cl)cc2n1 [I-855] |
| < 2000 | 2000 to 10000 | COc1ccc2c(-n3ccnc3)cc(N3CCC[C@H]3COCCC(=O)O)nc2c1Cl [I-856] |
| < 2000 | < 2000 | O=C(O)CCOC[C@@H]1CCCN1c1cc(-n2ccnc2)c2cc(Br)c(Cl)c(Cl)c2n1 [I-857] |
| < 2000 | > 10000 | COc1c(Cl)ccc2c(-n3ccnc3)cc(N3CCC[C@H]3COCCC(=O)O)nc12 [I-860] |
| < 2000 | < 2000 | O=C(O)CCOCC1CCCCCN1c1cc(-n2ccnc2)c2ccc(Cl)c(Cl)c2n1 (stereo not shown) [I-865] |
| < 2000 | < 2000 | O=C(O)CCOCC1CN(c2cc(-n3ccnc3)c3ccc(Cl)c(Cl)c3n2)CCCO1 (stereo not shown) [I-867] |
| < 2000 | 2000 to 10000 | O=C(O)CCOCC1COCCN(c2cc(-n3ccnc3)c3ccc(Cl)c(Cl)c3n2)C1 (stereo not shown) [I-868] |
| 2000 to 30000 | < 2000 | COC(=O)[C@@H]1[C@@H](O)CCN1c1cc(-n2ccnc2)c2ccc(Cl)c(Br)c2n1 [I-872] |
| < 2000 | 2000 to 10000 | CC(OCCC(=O)O)c1cccc(-c2cc(-n3ccnc3)c3ccc(Cl)c(Cl)c3n2)c1 (stereo not shown) [I-880] |
| < 2000 | 2000 to 10000 | O=C(O)CCc1cccc(Nc2cc(-n3ccnc3)c3ccc(Cl)c(Cl)c3n2)c1 [I-883] |
| < 2000 | 2000 to 10000 | O=C(O)c1cccc(CNc2cc(-n3ccnc3)c3ccc(Cl)c(Cl)c3n2)c1 [I-887] |
| < 2000 | 2000 to 10000 | O=C(O)Cc1ccccc1CNc1cc(-n2ccnc2)c2ccc(Cl)c(Cl)c2n1 [I-888] |
| < 2000 | > 10000 | O=C(O)c1cnn(CCNc2cc(-n3ccnc3)c3ccc(Cl)c(Cl)c3n2)c1 [I-889] |
| 2000 to 30000 | < 2000 | COC(=O)Cc1cc(F)cc(CNc2cc(-n3ccnc3)c3ccc(Cl)c(Cl)c3n2)c1 [I-890, methyl 2-(3-(((7,8-dichloro-4-(1H-imidazol-1-yl)quinolin-2-yl)amino)methyl)-5-fluorophenyl)acetate] |

From patent US11873291B2, “Quinoline cGAS antagonist compounds” (ImmuneSensor Therapeutics, Inc., priority 2020, dated 2024)
